Measured values taken from patent US20230357300A1, “TRITERPENE SAPONIN SYNTHESIS, INTERMEDIATES AND ADJUVANT COMBINATIONS” (priority 2017, published 2023).

How the values were obtained:
[1] = Companion toxicity study, body mass three days after immunization; format: in vivo, mice
Experimental: (§1) Natural and synthetic QS-21 (SQS-21 or SAPONEX®) and a variety of analogs were tested for hemolytic activity. […] FIG. 5 depicts results a hemolytic assay performed with TiterQuil-1055. In a companion toxicity study three days after immunization, animals that received 20 mcg of QS-21 have lost 8-10% of their body mass on average, whereas PBS, TiterQuil-101 and TiterQuil-1055 recipients have gained 5% on average (normal weight gain in young mice). Without being bound by theory, hemolytic activity may be a direct result of degradation of QS-21 under physiologic conditions and TiterQuil-1055′s lack of hemolytic activity may result from improved stability.

mice [2] = assay: Engerix-B (hepatitis B vaccine) immunogenicity in mice, anti-HBsAg antibody; format: in vivo
Experimental: (§2) Experiments were conducted with Engerix-B (HBV adult vaccine) in groups of 10 mice. Initially 3 mcg, 1 mcg, 0.3 mcg, 0.1 mcg, and 0.03 mcg Engerix-B doses per mouse were tested. Mean resulting anti-HBsAg antibody levels were 92,512 mcg/ml, 64,255 mcg/ml, 24,847 mcg/ml, 3,682 mcg/ml, and 910 mcg/ml respectively, with the 0.03 dose being indistinguishable from controls (821 mcg/ml). The 0.3 mcg dose of Engerix-B was selected for further studies and this dose was used mixed with various doses of TiterQuil-1055 (TQL-1055 / Compound I-4). The resulting geometric mean antibody concentrations are summarized in FIG. 4 of the present application.

[3] = Body weight of mice in the Engerix-B / TiterQuil-1055 dose study; format: in vivo
Experimental: as §2

Stability at 37° C. = format: physicochemical; conditions: for degradation: after two weeks at 37° C.
Experimental: as §1

hemolysis = assay: Hemolytic assay; format: cell-based
Experimental: FIG. 5 depicts data showing the hemolytic activity of QS-21 at 2uM, 5uM and 20uM, and Compound 26 (TiterQuil-1-0-5-5 / TQL-1055) at 20uM, 100uM and 200uM. % Hemolytic activity reported as % of Triton-X100/SDS lysis control.
as §1

mice [4] = assay: Adacel (Tdap vaccine) immunogenicity in mice, anti-PT antibody in serum; format: in vivo; conditions: for augmentation of antibody levels compared to immunization with Adacel alone: 2 weeks after second SC immunization, adjuvant given with Adacel
Experimental: (§3) Adacel doses containing 1, 0.3, and 0.1 mcg of pertussis toxin per mouse were administered subcutaneously (SC, with no immunological adjuvant), using 2 vaccinations 4 weeks apart, resulting in a mean of 1,618 mcg, 898 mcg, and 107 mcg respectively of anti-PT antibody per ml of serum drawn 2 weeks after the second vaccination. The 0.1 mcg dose was indistinguishable from unvaccinated controls (96 mcg/ml). A 0.5 mcg dose of Adacel was selected for a pharmacology/toxicology (pharm/tox) study. The serological results for this study are summarized in FIG. 3 of the present application.

mice [5] = format: in vivo; conditions: for changes in blood chemistry or hematology results: mice vaccinated SC days 1 and 15; for weight loss (body weight): mice, 50 mcg TiterQuil-1055, 20 mcg QS-21; for liver histopathology (hepatocellular cytoplasmic vacuolization / vacuolar changes): sacrificed day 22, 33 tissues examined
Experimental: as §3
A pharm/tox study was conducted in 7 groups of 5 mice: 1) PBS alone, 2) 50 mcg TiterQuil-1055, 3) 20 mcg QS-21, 4) Adacel 2.5 mcg pertussis toxin (⅕ the human dose), 5) Adacel + QS-21 (20 mcg QS-21), 6) Adacel + TiterQuil-1055 (50 mcg), 7) Adacel + TiterQuil-1055 (50 mcg). Mice were vaccinated SC on days 1 and 15, weighed daily, and bled and sacrificed on day 22, except for group 7 which was sacrificed on day 29. […] Histopathology of 33 different tissues was performed on all mice. Detected abnormalities were restricted to the liver. […] This abnormality was short lived and was no detected in group 7, which was sacrificed one week after groups 1-6.

[6] = cited from earlier work
[7] = 50 mcg TiterQuil-1055, 20 mcg QS-21, Adacel 2.5 mcg pertussis toxin

CC1O[C@@H](OC2C(O)[C@@H](NC(=O)CCCCCCCCCCC(=O)O)C(CO)O[C@H]2OC(=O)[C@]23CCC(C)(C)CC2C2=CCC4C5(C)CC[C@H](O)C(C)(C=O)[C@@H]5CC[C@@]4(C)C2(C)CC3O)C(O)C(O)[C@H]1O[C@@H]1OC[C@@H](O)C(O)C1O (stereo partly shown) [TiterQuil-1055]
body mass gained on average [1]: 5%
increase in antibody levels compared to Engerix-B alone (mice [2]; 10 mcg TiterQuil-1055 mixed with 0.3 mcg Engerix-B): no serologic effect
increase in antibody levels compared to Engerix-B alone (mice [2]; 30 mcg TiterQuil-1055 mixed with 0.3 mcg Engerix-B): > 6 fold
increase in antibody levels compared to Engerix-B alone (mice [2]; 100 mcg TiterQuil-1055 mixed with 0.3 mcg Engerix-B): 5 fold
antibody response at high adjuvant doses (mice [2]; TiterQuil-1055 doses above 50 mcg per mouse): Lack of antibody increase or decreasing responses
weight loss ([3]; 30 mcg TiterQuil-1055 dose): No weight loss
weight loss ([3]; 100 mcg TiterQuil-1055 dose): 4%
weight loss ([3]; 300 mcg TiterQuil-1055 dose): 5%
degradation (Stability at 37° C.): without detectable degradation
stability (Stability at 37° C.; compared with QS-21): increased stability
hemolytic activity (hemolysis): much lower or undetectable hemolytic activity
antibody levels 2 weeks later (mice [4]; Adacel with TiterQuil-1055, 2 weeks after the first reading): further increased
augmentation of antibody levels compared to immunization with Adacel alone (mice [4]; groups of 5 mice): 70 fold
antibody levels 2 weeks after the second SC immunization (mice [4]; pharm/tox study, groups of 5 mice, Adacel alone or Adacel with TiterQuil-1055): 52,344
weight loss (mice [5]; mice vaccinated SC days 1 and 15, weighed daily, 50 mcg TiterQuil-1055, 20 mcg QS-21, Adacel 2.5 mcg pertussis toxin): no other mice
changes in blood chemistry or hematology results (mice [5]; [7]): No changes
weight loss (body weight) (mice [5]): No weight loss
liver histopathology (hepatocellular cytoplasmic vacuolization / vacuolar changes) (mice [5]; [7]): No changes at all

QS-21 [reference compound]
body mass lost on average ([1]; 20 mcg QS-21): 8-10%
tolerated (maximum) dose in cancer patients ([6]; cancer patients, above it local and systemic side effects): 100 to 150 µg
maximum dose for healthy patients ([6]; healthy patients): ~50 µg
highest practical tolerable dose ([6]; well (non-cancer) adult and child recipients): 25 to 50 µg
degradation (Stability at 37° C.): 20%
hemolytic activity (hemolysis): highly hemolytically active
augmentation of antibody levels compared to immunization with Adacel alone (mice [4]; groups of 5 mice): 10 fold
changes in blood chemistry or hematology results (mice [5]; [7]): No changes
weight loss (body weight) (mice [5]): 8-9%
liver histopathology (hepatocellular cytoplasmic vacuolization / vacuolar changes) (mice [5]; [7]): Mild vacuolar changes
